Experimental data: US20240360178A1, “MACROCYCLIC IMMUNOMODULATORS” (Bristol-Myers Squibb Company, priority 2021, published 2024)
Positions of bridges follow the written chain, without caps; N, C: chain ends. Non-standard residues stand in square brackets, D forms with d. Residues, ends and D or L forms follow the SMILES beside them. Phe(3-CF3) = N[C@@H](Cc1cccc(C(F)(F)F)c1)C(=O)O; Bip = N[C@@H](Cc1ccc(-c2ccccc2)cc1)C(=O)O; Phe(3-OMe) = COc1cccc(C[C@H](N)C(=O)O)c1; Phe(3-Me) = Cc1cccc(C[C@H](N)C(=O)O)c1; NMeF = CN[C@@H](Cc1ccccc1)C(=O)O; Cit = NC(=O)NCCC[C@H](N)C(=O)O; NMeA = CN[C@@H](C)C(=O)O; Orn = NCCC[C@H](N)C(=O)O; Dab = NCC[C@H](N)C(=O)O

Target: T1, human PD-1 (Jurkat-PD-1 cells) / PE-labeled human PD-L1-Ig (Homo sapiens, UniProt Q15116)
T1 construct: expressed in transfected cells; host or cells: Jurkat cell line over-expressing human PD-1
T1 sequence (Q15116 25-288): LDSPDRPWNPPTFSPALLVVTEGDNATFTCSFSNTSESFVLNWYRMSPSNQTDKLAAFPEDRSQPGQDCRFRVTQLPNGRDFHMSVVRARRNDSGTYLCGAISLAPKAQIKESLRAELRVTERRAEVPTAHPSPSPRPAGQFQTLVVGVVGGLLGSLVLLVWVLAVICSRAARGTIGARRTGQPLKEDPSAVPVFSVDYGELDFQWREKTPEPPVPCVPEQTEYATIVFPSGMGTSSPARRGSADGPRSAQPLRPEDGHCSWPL
Assay: Jurkat-PD-1 Cell Binding High-Content Screening Assay (CBA); Jurkat hPD1-PDL1 assay
Conditions: Jurkat cell line over-expressing human PD-1; PE-labeled PD-L1-Ig 20 nM final; compound incubated 2 hours at 37° C.; read-out: Jurkat HPD1-PDL1 IC50
Procedure, shortened: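 Read-out is high-content imaging of PE fluorescence on PD-1-over-expressing Jurkat cells. Cells are first exposed to compound for 2 hours at 37° C in serum-containing DMEM, after which PE-labeled PD-L1-Ig is added at 20 nM final.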

IC50 [µM]	Compound
0.76	CC(C)C[C@@H]1NC(=O)[C@H](CCCNC(=N)N)NC(=O)[C@H](Cc2ccccc2)N(C)C(=O)[C@H](CCCCN)NC(=O)[C@H](CCCNC(=N)N)NC(=O)[C@H](Cc2ccc(-c3ccccc3)cc2)NC(=O)[C@H](C(C)C)NC(=O)[C@H](Cc2c[nH]c3ccccc23)NC(=O)[C@H](CC(=O)O)NC(=O)[C@H](Cc2ccc(O)cc2)NC(=O)[C@H](CC(N)=O)NC(=O)CSC[C@@H](C(=O)N[C@@H](C)C(N)=O)NC(=O)[C@H]([C@@H](C)O)NC(=O)[C@H](C(C)C)NC1=O [Example 1365] ({CH2CO}-NYDWV[Bip]RK[NMeF]RLVTCA-NH2; thioether N-14)
0.33	CC(C)C[C@@H]1NC(=O)[C@H](CCCNC(=N)N)NC(=O)[C@H](Cc2ccccc2)N(C)C(=O)[C@@H](CCCCN)NC(=O)[C@H](CCCNC(=N)N)NC(=O)[C@H](Cc2ccc(-c3ccccc3)cc2)NC(=O)[C@H](C(C)C)NC(=O)[C@H](Cc2c[nH]c3ccccc23)NC(=O)[C@H](CC(=O)O)NC(=O)[C@H](Cc2ccc(O)cc2)NC(=O)[C@H](CC(N)=O)NC(=O)CSC[C@@H](C(=O)N[C@@H](C)C(N)=O)NC(=O)[C@H]([C@@H](C)O)NC(=O)[C@H](C(C)C)NC1=O [Example 1369] ({CH2CO}-NYDWV[Bip]R[dK][NMeF]RLVTCA-NH2; thioether N-14)
0.23	CC(C)C[C@@H]1NC(=O)[C@H](CCCNC(=N)N)NC(=O)[C@H](Cc2ccccc2)N(C)C(=O)[C@H](C)N(C)C(=O)[C@H](CCCNC(N)=O)NC(=O)[C@H](Cc2ccc(-c3ccccc3)cc2)NC(=O)[C@H](C(C)C)NC(=O)[C@H](Cc2c[nH]c3ccccc23)NC(=O)[C@H](CC(=O)O)NC(=O)[C@H](Cc2ccc(O)cc2)NC(=O)[C@H](CC(N)=O)NC(=O)CSC[C@@H](C(=O)N[C@@H](C)C(N)=O)NC(=O)[C@H](CCCN)NC(=O)[C@H](C(C)C)NC1=O [Example 1371] ({CH2CO}-NYDWV[Bip][Cit][NMeA][NMeF]RLV[Orn]CA-NH2; thioether N-14)
0.18	CC(C)C[C@@H]1NC(=O)[C@H](CCCNC(=N)N)NC(=O)[C@H](Cc2ccccc2)N(C)C(=O)[C@H](C)N(C)C(=O)[C@H](CCCNC(=N)N)NC(=O)[C@H](Cc2ccc(-c3ccccc3)cc2)NC(=O)[C@H](C(C)C)NC(=O)[C@H](Cc2c[nH]c3ccccc23)NC(=O)[C@H](CC(=O)O)NC(=O)[C@H](Cc2ccc(O)cc2)NC(=O)[C@H](CC(N)=O)NC(=O)CSC[C@@H](C(=O)N[C@@H](C)C(N)=O)NC(=O)[C@H](CCCN)NC(=O)[C@H](C(C)C)NC1=O [Example 1373] ({CH2CO}-NYDWV[Bip]R[NMeA][NMeF]RLV[Orn]CA-NH2; thioether N-14)
0.01	Cc1cccc(C[C@@H]2NC(=O)[C@H](CC(=O)O)NC(=O)[C@H](Cc3ccc(O)cc3)NC(=O)[C@H](CC(N)=O)NC(=O)CSC[C@@H](C(=O)N[C@@H](C)C(N)=O)NC(=O)[C@H]([C@@H](C)O)NC(=O)[C@H](C(C)C)NC(=O)[C@H](CC(C)C)NC(=O)[C@H](CCN)NC(=O)[C@H](Cc3ccccc3)N(C)C(=O)[C@H](C)N(C)C(=O)[C@H](CCCNC(N)=O)NC(=O)[C@H](Cc3ccc(-c4ccccc4)cc3)NC(=O)[C@H](C(C)C)NC2=O)c1 [Example 1374] ({CH2CO}-NYD[Phe(3-Me)]V[Bip][Cit][NMeA][NMeF][Dab]LVTCA-NH2; thioether N-14)
0.08	COc1cccc(C[C@@H]2NC(=O)[C@H](CC(=O)O)NC(=O)[C@H](Cc3ccc(O)cc3)NC(=O)[C@H](CC(N)=O)NC(=O)CSC[C@@H](C(=O)N[C@@H](C)C(N)=O)NC(=O)[C@H]([C@@H](C)O)NC(=O)[C@H](C(C)C)NC(=O)[C@H](CC(C)C)NC(=O)[C@H](CCN)NC(=O)[C@H](Cc3ccccc3)N(C)C(=O)[C@H](C)N(C)C(=O)[C@H](CCCNC(N)=O)NC(=O)[C@H](Cc3ccc(-c4ccccc4)cc3)NC(=O)[C@H](C(C)C)NC2=O)c1 [Example 1375] ({CH2CO}-NYD[Phe(3-OMe)]V[Bip][Cit][NMeA][NMeF][Dab]LVTCA-NH2; thioether N-14)
0.07	CC(C)C[C@@H]1NC(=O)[C@H](CCN)NC(=O)[C@H](Cc2ccccc2)N(C)C(=O)[C@H](C)N(C)C(=O)[C@H](CCCNC(N)=O)NC(=O)[C@H](Cc2ccc(-c3ccccc3)cc2)NC(=O)[C@H](C(C)C)NC(=O)[C@H](Cc2cccc(C(F)(F)F)c2)NC(=O)[C@H](CC(=O)O)NC(=O)[C@H](Cc2ccc(O)cc2)NC(=O)[C@H](CC(N)=O)NC(=O)CSC[C@@H](C(=O)N[C@@H](C)C(N)=O)NC(=O)[C@H]([C@@H](C)O)NC(=O)[C@H](C(C)C)NC1=O [Example 1376] ({CH2CO}-NYD[Phe(3-CF3)]V[Bip][Cit][NMeA][NMeF][Dab]LVTCA-NH2; thioether N-14)
0.04	CC(C)C[C@@H]1NC(=O)[C@H](CCCNC(=N)N)NC(=O)[C@H](Cc2ccccc2)N(C)C(=O)[C@H](C)N(C)C(=O)[C@H](CCCNC(N)=O)NC(=O)[C@H](Cc2ccc(-c3ccccc3)cc2)NC(=O)[C@H](C(C)C)NC(=O)[C@H](Cc2c[nH]c3ccccc23)NC(=O)[C@H](CC(=O)O)NC(=O)[C@H](Cc2ccc(O)cc2)NC(=O)[C@H](CC(N)=O)NC(=O)CSC[C@@H](C(=O)N[C@@H](C)C(N)=O)NC(=O)[C@H](CO)NC(=O)[C@H](C(C)C)NC1=O [Example 1377] ({CH2CO}-NYDWV[Bip][Cit][NMeA][NMeF]RLVSCA-NH2; thioether N-14)
0.11	CC(C)C[C@@H]1NC(=O)[C@H](CCCNC(=N)N)NC(=O)[C@H](Cc2ccccc2)N(C)C(=O)[C@H](C)N(C)C(=O)[C@H](CCC(=O)O)NC(=O)[C@H](Cc2ccc(-c3ccccc3)cc2)NC(=O)[C@H](C(C)C)NC(=O)[C@H](Cc2c[nH]c3ccccc23)NC(=O)[C@H](CC(=O)O)NC(=O)[C@H](Cc2ccc(O)cc2)NC(=O)[C@H](CC(N)=O)NC(=O)CSC[C@@H](C(=O)N[C@@H](C)C(N)=O)NC(=O)[C@H](CCCN)NC(=O)[C@H](C(C)C)NC1=O [Example 1378] ({CH2CO}-NYDWV[Bip]E[NMeA][NMeF]RLV[Orn]CA-NH2; thioether N-14)
0.04	CC(C)C[C@@H]1NC(=O)[C@H](CCCNC(=N)N)NC(=O)[C@H](Cc2ccccc2)N(C)C(=O)[C@H](C)N(C)C(=O)[C@H](CCC(=O)O)NC(=O)[C@H](Cc2ccc(-c3ccccc3)cc2)NC(=O)[C@H](C(C)C)NC(=O)[C@H](Cc2c[nH]c3ccccc23)NC(=O)[C@H](CC(=O)O)NC(=O)[C@H](Cc2ccc(O)cc2)NC(=O)[C@H](CC(N)=O)NC(=O)CSC[C@@H](C(=O)N[C@@H](C)C(N)=O)NC(=O)[C@H]([C@@H](C)O)NC(=O)[C@H](C(C)C)NC1=O [Example 1379] ({CH2CO}-NYDWV[Bip]E[NMeA][NMeF]RLVTCA-NH2; thioether N-14)
0.07	CC(C)C[C@@H]1NC(=O)[C@H](CCN)NC(=O)[C@H](Cc2ccccc2)N(C)C(=O)[C@H](C)N(C)C(=O)[C@H](CCC(=O)O)NC(=O)[C@H](Cc2ccc(-c3ccccc3)cc2)NC(=O)[C@H](C(C)C)NC(=O)[C@H](Cc2c[nH]c3ccccc23)NC(=O)[C@H](CC(=O)O)NC(=O)[C@H](Cc2ccc(O)cc2)NC(=O)[C@H](CC(N)=O)NC(=O)CSC[C@@H](C(=O)N[C@@H](C)C(N)=O)NC(=O)[C@H](CCCN)NC(=O)[C@H](C(C)C)NC1=O [Example 1380] ({CH2CO}-NYDWV[Bip]E[NMeA][NMeF][Dab]LV[Orn]CA-NH2; thioether N-14)
0.16	CC(C)C[C@@H]1NC(=O)[C@H](CCCNC(=N)N)NC(=O)[C@H](Cc2ccccc2)N(C)C(=O)[C@H](C)N(C)C(=O)[C@H](CCCNC(N)=O)NC(=O)[C@H](Cc2ccc(-c3ccccc3)cc2)NC(=O)[C@H](C(C)C)NC(=O)[C@H](Cc2c[nH]c3ccccc23)NC(=O)[C@H](CC(=O)O)NC(=O)[C@H](Cc2ccc(O)cc2)NC(=O)[C@H](CC(N)=O)NC(=O)CSC[C@@H](C(=O)NCC(N)=O)NC(=O)[C@H](CO)NC(=O)[C@H](C(C)C)NC1=O [Example 1381] ({CH2CO}-NYDWV[Bip][Cit][NMeA][NMeF]RLVSCG-NH2; thioether N-14)
0.13	CC(C)C[C@@H]1NC(=O)[C@H](CCCNC(=N)N)NC(=O)[C@H](Cc2ccccc2)N(C)C(=O)[C@H](C)N(C)C(=O)[C@H](CCC(=O)O)NC(=O)[C@H](Cc2ccc(-c3ccccc3)cc2)NC(=O)[C@H](C(C)C)NC(=O)[C@H](Cc2c[nH]c3ccccc23)NC(=O)[C@H](CC(=O)O)NC(=O)[C@H](Cc2ccc(O)cc2)NC(=O)[C@H](CC(N)=O)NC(=O)CSC[C@@H](C(=O)N[C@@H](C)C(N)=O)NC(=O)[C@H](CO)NC(=O)[C@H](C(C)C)NC1=O [Example 1382] ({CH2CO}-NYDWV[Bip]E[NMeA][NMeF]RLVSCA-NH2; thioether N-14)
0.63	CC(C)C[C@@H]1NC(=O)[C@H](CCCNC(=N)N)NC(=O)[C@H](Cc2ccccc2)N(C)C(=O)[C@H](CCCN)NC(=O)[C@H](CCCNC(=N)N)NC(=O)[C@H](Cc2ccc(-c3ccccc3)cc2)NC(=O)[C@H](C(C)C)NC(=O)[C@H](Cc2c[nH]c3ccccc23)NC(=O)[C@H](CC(=O)O)NC(=O)[C@H](Cc2ccc(O)cc2)NC(=O)[C@H](CC(N)=O)NC(=O)CSC[C@@H](C(=O)N[C@@H](C)C(N)=O)NC(=O)[C@H]([C@@H](C)O)NC(=O)[C@H](C(C)C)NC1=O [Example 1383] ({CH2CO}-NYDWV[Bip]R[Orn][NMeF]RLVTCA-NH2; thioether N-14)
0.22	CC(C)C[C@@H]1NC(=O)[C@H](CCCCN)NC(=O)[C@H](Cc2ccccc2)N(C)C(=O)[C@H](C)N(C)C(=O)[C@H](CCCNC(=N)N)NC(=O)[C@H](Cc2ccc(-c3ccccc3)cc2)NC(=O)[C@H](C(C)C)NC(=O)[C@H](Cc2c[nH]c3ccccc23)NC(=O)[C@H](CC(=O)O)NC(=O)[C@H](Cc2ccc(O)cc2)NC(=O)[C@H](CC(N)=O)NC(=O)CSC[C@@H](C(=O)N[C@@H](C)C(N)=O)NC(=O)[C@H]([C@@H](C)O)NC(=O)[C@H](C(C)C)NC1=O [Example 1384] ({CH2CO}-NYDWV[Bip]R[NMeA][NMeF]KLVTCA-NH2; thioether N-14)
